# Experimental data taken from ChEMBL document CHEMBL3352214, “Studies on indolizines. Evaluation of their biological properties as microtubule-interacting agents and as melanoma targeting compounds” (Eur J Med Chem, 2015).
# Columns and labels:
# [1] = biological target: Tubulin; test: Inhibition of tubulin (unknown origin) polymerization; assay type: protein-complex assay, Homo sapiens
# [2] = organism: Ovis aries; test: Inhibition of sheep brain tubulin polymerization at 100 uM by fluorescence assay
# [3] = Inhibition of sheep brain tubulin polymerization by fluorescence assay; set-up: species or system Ovis aries
# [4] = Growth inhibition of human MOLT4 cells at 10^-5 M after 48 hrs by SRB assay; assay type: functional; settings: MOLT-4, 48 h, read-out: GI
# [5] = Growth inhibition of human EKVX cells at 10^-5 M after 48 hrs by SRB assay; assay type: functional; settings: read-out: GI
# [6] = tested on: NCI-H522; test: Growth inhibition of human NCI-H522 cells at 10^-5 M after 48 hrs by SRB assay; assay type: functional; settings: NCI-H522, 48 h, read-out: GI
# [7] = Growth inhibition of human HCT116 cells at 10^-5 M after 48 hrs by SRB assay; assay type: functional; settings: HCT-116, 48 h, read-out: GI
# [8] = Growth inhibition of human HCT15 cells at 10^-5 M after 48 hrs by SRB assay; assay type: functional; settings: HCT-15, 48 h, read-out: GI
# [9] = tested on: MDA-MB-435; test: Growth inhibition of human MDA-MB-435 cells at 10^-5 M after 48 hrs by SRB assay; assay type: functional; settings: MDA-MB-435, 48 h, read-out: GI
# [10] = tested on: Malme-3M; test: Growth inhibition of human MALME-3M cells at 10^-5 M after 48 hrs by SRB assay; assay type: functional; settings: read-out: GI
# [11] = tested on: A498; test: Growth inhibition of human A498 cells at 10^-5 M after 48 hrs by SRB assay; assay type: functional; settings: A498, 48 h, read-out: GI
# [12] = tested on: CAKI-1; test: Growth inhibition of human Caki1 cells at 10^-5 M after 48 hrs by SRB assay; assay type: functional; settings: CAKI-1, 48 h, read-out: GI
# [13] = Growth inhibition of human PC3 cells at 10^-5 M after 48 hrs by SRB assay; assay type: functional; settings: PC-3, 48 h, read-out: GI
# [14] = Growth inhibition of human SF295 cells at 10^-5 M after 48 hrs by SRB assay; assay type: functional; settings: SF-295, 48 h, read-out: GI
# [15] = tested on: SNB-75; test: Growth inhibition of human SNB75 cells at 10^-5 M after 48 hrs by SRB assay; assay type: functional; settings: SNB-75, 48 h, read-out: GI
# [16] = tested on: MCF7; test: Growth inhibition of human MCF7 cells at 10^-5 M after 48 hrs by SRB assay; assay type: functional; settings: MCF7, 48 h, read-out: GI
# [17] = tested on: T47D; test: Growth inhibition of human T47D cells at 10^-5 M after 48 hrs by SRB assay; assay type: functional; set-up: Activity: scale not given: the % may be the effect or the level left
# [18] = tested on: MOLT-4; test: Cytotoxicity against human MOLT4 cells assessed as cell growth at 10^-5 M after 48 hrs by SRB assay; assay type: functional; settings: MOLT-4, 48 h, read-out: Activity
# [19] = tested on: HL-60(TB); test: Growth inhibition of human HL-60(TB) cells after 48 hrs by SRB assay; assay type: functional; settings: HL-60, 48 h
# [20] = tested on: SR; test: Growth inhibition of human SR cells after 48 hrs by SRB assay; assay type: functional
# [21] = tested on: NCI-H522; test: Growth inhibition of human NCI-H522 cells after 48 hrs by SRB assay; assay type: functional; settings: NCI-H522, 48 h
# [22] = Growth inhibition of human COLO205 cells after 48 hrs by SRB assay; assay type: functional; settings: COLO 205, 48 h
# [23] = tested on: KM12; test: Growth inhibition of human KM12 cells after 48 hrs by SRB assay; assay type: functional; settings: KM12, 48 h
# [24] = tested on: HT-29; test: Growth inhibition of human HT-29 cells after 48 hrs by SRB assay; assay type: functional; settings: HT-29, 48 h
# [25] = tested on: MDA-MB-435; test: Growth inhibition of human MDA-MB-435 cells after 48 hrs by SRB assay; assay type: functional; settings: MDA-MB-435, 48 h
# [26] = tested on: SK-MEL-5; test: Growth inhibition of human SK-MEL-5 cells after 48 hrs by SRB assay; assay type: functional; settings: SK-MEL-5, 48 h
# [27] = Growth inhibition of human OVCAR3 cells after 48 hrs by SRB assay; assay type: functional; settings: OVCAR-3, 48 h
# [28] = tested on: NCI/ADR-RES; test: Growth inhibition of human NCI/ADR-RES cells after 48 hrs by SRB assay; assay type: functional
# [29] = tested on: A498; test: Growth inhibition of human A498 cells after 48 hrs by SRB assay; assay type: functional; settings: A498, 48 h
# [30] = Growth inhibition of human PC3 cells after 48 hrs by SRB assay; assay type: functional; settings: PC-3, 48 h
# [31] = tested on: SNB-75; test: Growth inhibition of human SNB75 cells after 48 hrs by SRB assay; assay type: functional; settings: SNB-75, 48 h
# [32] = tested on: MDA-MB-468; test: Growth inhibition of human MDA-MB-468 cells after 48 hrs by SRB assay; assay type: functional; settings: MDA-MB-468, 48 h
# [33] = tested on: MCF7; test: Growth inhibition of human MCF7 cells after 48 hrs by SRB assay; assay type: functional; settings: MCF7, 48 h
# [34] = tested on: HL-60(TB); test: Growth inhibition of human HL-60(TB) cells at 10^-5 M after 48 hrs by SRB assay; assay type: functional; settings: HL-60, 48 h, read-out: GI
# [35] = Growth inhibition of human HOP92 cells at 10^-5 M after 48 hrs by SRB assay; assay type: functional; settings: HOP-92, 48 h, read-out: GI
# [36] = tested on: NCI-H522; test: Cytotoxicity against human NCI-H522 cells assessed as cell growth at 10^-5 M after 48 hrs by SRB assay; assay type: functional; settings: NCI-H522, 48 h, read-out: Activity
# [37] = Cytotoxicity against human HCT116 cells assessed as cell growth at 10^-5 M after 48 hrs by SRB assay; assay type: functional; settings: HCT-116, 48 h, read-out: Activity
# [38] = tested on: MDA-MB-435; test: Cytotoxicity against human MDA-MB-435 cells assessed as cell growth at 10^-5 M after 48 hrs by SRB assay; assay type: functional; settings: MDA-MB-435, 48 h, read-out: Activity
structure (smiles),measurement,setting,value
COc1ccc(C(=O)c2cc(OC)c(OC)c(OC)c2)cc1O [PHENSTATIN],IC50,[1],3400 nM
same,inhibition,[2],99%
same,IC50,[3],3430 nM
CCOC(=O)c1cc(C(=O)c2ccc(OC)c(OC)c2)n2ccc(OC)cc12,inhibition,[2],51%
same,inhibition of growth at 10 µM,[4],100%
same,inhibition of growth at 10 µM,[5],0%
same,inhibition of growth at 10 µM,[6],0%
same,inhibition of growth at 10 µM,[7],2%
same,inhibition of growth at 10 µM,[8],7%
same,inhibition of growth at 10 µM,[9],2%
same,inhibition of growth at 10 µM,[10],12%
same,inhibition of growth at 10 µM,[11],15%
same,inhibition of growth at 10 µM,[12],3%
same,inhibition of growth at 10 µM,[13],12%
same,inhibition of growth at 10 µM,[14],3%
same,inhibition of growth at 10 µM,[15],0%
same,inhibition of growth at 10 µM,[16],8%
same,inhibition of growth at 10 µM,"[17]; Homo sapiens, T47D, 48 h, read-out: GI",4%
same,growth at 10 µM,[18],-53%
CCOC(=O)c1cc(C(=O)c2cc(OC)c(OC)c(OC)c2)n2ccc(C)cc12,GI50,[19],630 nM
same,GI50,[20],310 nM
same,GI50,[21],585 nM
same,GI50,[22],650 nM
same,GI50,[23],497 nM
same,GI50,[24],393 nM
same,GI50,[25],234 nM
same,GI50,[26],411 nM
same,GI50,[27],343 nM
same,GI50,[28],411 nM
same,GI50,[29],272 nM
same,GI50,[30],976 nM
same,GI50,[31],324 nM
same,GI50,[32],410 nM
same,GI50,[33],339 nM
same,inhibition,[2],72%
same,IC50,[3],28100 nM
same,inhibition of growth at 10 µM,[4],50%
same,inhibition of growth at 10 µM,[34],92%
same,inhibition of growth at 10 µM,[35],88%
same,inhibition of growth at 10 µM,[5],50%
same,inhibition of growth at 10 µM,[6],100%
same,inhibition of growth at 10 µM,[7],100%
same,inhibition of growth at 10 µM,[9],100%
same,inhibition of growth at 10 µM,[10],74%
same,inhibition of growth at 10 µM,[12],66%
same,inhibition of growth at 10 µM,[13],79%
same,inhibition of growth at 10 µM,[14],85%
same,inhibition of growth at 10 µM,[15],82%
same,inhibition of growth at 10 µM,[16],88%
same,Activity,[17],83%
same,growth at 10 µM,[36],-9%
same,growth at 10 µM,[37],-58%
same,growth at 10 µM,[38],-17%
